Results: article PMC7765409 (International Journal of Molecular Sciences, 2020)

Key:
CDK2 = system: CDK2; parameters: method as in AstraZeneca data repository; details: median log of IC50/EC50/Ki/Kd annotations, highest value; ref AstraZeneca data repository; cited from earlier work
hiPSC-Hep = assay: valid cell count (Hoechst nuclei) in hiPSC-Hep, multiplexed viability readout; assay type: cell-based; details: Homo sapiens; for IC50: 10-point dose-response, multiplexed with lipid readout
Description: To induce hepatic triglycerides (TAG) accumulation, before staining, cells were treated with 20 μL of 2× FA mixture, consisting of different proportions of oleic acid (OA-BSA, 25 µM, Sigma, #O3008), palmitic acid (PA-BSA, 200 µM, Agilent Technologies, #102720100) and thapsigargin (TG, 1 µM, Abcam, #120286) with a total volume of 40 μL/well. The TG/FA mixture was dispensed with BioTek^TM Microflo^TM select dispenser (#7170011, BioTek Instruments) and incubated for 18 h. Next, to label TAG accumulation stored into cytoplasmic lipid droplets, upon treatment, living cells were washed two times with warm Dulbecco’s Phosphate-Buffered Saline 1X (PBS, Corning, #21-031CV) with a handheld 384-channel electronic pipette device and then incubated for 15 min with a lipophilic dye, BODIPY 493/503 (8 ug/mL Life technologies, #D3922-green), in PBS at 37 °C. BODIPY (493/503) has become the standard dye utilized by scientists to study lipid droplets in live cells. After three washes with PBS cells were fixed with 4% paraformaldehyde methanol-free (PFA, Electron Microscopy Science, #15710) in PBS for 15 min at room temperature (RT). Cell health was monitored by Hoechst 33342 (10 ug/mL, Molecular Probe, #H21492) staining in PBS for nuclear count. After TAG staining the 384-assay plates were loaded in an automated confocal microscope with Opera High Content Imaging System (PerkinElmer, Waltham, MA, USA). Dyes were excited and images were captured on the Hoechst 3342 and Alexa Fluor 488 channels and signals were collected with a long pass filter 410 and 505 nm, for nuclei and TAG, respectively, at objective 20× air objective for HCA. To capture enough cells (>600) for the analysis, eight fields per well were imaged. Hoechst 33342 fluorescence was used to identify the nuclear region and cell counts. To assess intracellular fat deposits, BODIPY 493/503 fluorescence intensity was measured inside the cytoplasm region. […]

CDK2 gene expression = assay: RT-qPCR gene expression in TG/FA-treated hiPSC-Hep; assay type: cell-based, human; details: 24 h pre-treatment then TG/FA 18 h; relative to TG/FA
Description: (§1) To explore the signaling partners triggered or altered by the drugs, we performed gene expression RT-qPCR. The hiPSC-Hep were pre-treated in a 24-well plate with the three compounds shown in Figure 7 for 24 h followed by TG/FA challenge for an additional 18 h and RNA from each treatment well was isolated. The pre-treatment paradigm was chosen to stay consistent with how the original HTS was performed. We analyzed several target gene expression levels in the C/EBP-EP300 pathway including CDK2, CDK4, C/EBPα and C/EBPβ, EP300, and diacylglycerol acyltransferase 2 (DGAT2).
(§2) RNA was isolated from hiPSC-derived hepatocytes using the RNeasy kit (Qiagen, Frederick) and subsequently subjected to DNase digestion (Qiagen). Total RNA was quantified using NanoDrop 8000 (Thermo Scientific). The quality of total RNA was assessed by the Agilent Bioanalyzer Nano chip (Agilent Technologies) and RNA integrity number (RIN) ranged from 9.7 to 10. Reverse transcription was performed using the high capacity cDNA reverse transcription kit (Applied Biosystems, Foster City, CA, USA) according to the manufacturer’s recommendation and the complementary DNA (cDNA) obtained used for real-time quantitative PCR. The reaction mixture (10 μL), containing 1 μL of cDNA template, 0.5 μL each of primer and probe (20×, Thermo Fisher Scientific) mix for the gene of interest plus the reference gene and TaqMan Universal PCR master mix (Applied Biosystems) was added to the opaque white 384-well plates and amplified as follows: after 2 min of initial incubation at 50 °C and 10 min of initial denaturation at 95 °C, 45 cycles at 95 °C for 15 s, 60 °C for 1 min for annealing and 1 sec at 72 °C for final extension were performed. Assays were designed to have primers/probes to span exon–exon junctions (Table S1). Direct detection of PCR products was monitored by measuring the fluorescence produced by the result of TaqMan probe hydrolysis after every cycle. All experiments were carried out in triplicate in a LightCycler 480 thermocycler (Roche Diagnostic). Relative gene expression from qPCR data between groups of samples were assessed using a ∆∆Cq method. To adjust for variations in the cDNA synthesis each gene was normalized to that of hypoxanthine phosphoribosyl transferase 1 (HPRT1] or GAPDH mRNA.

EP300 gene expression = assay: RT-qPCR gene expression in TG/FA-treated hiPSC-Hep; assay type: cell-based, human; details: 24 h pre-treatment then TG/FA 18 h; relative to TG/FA
Description: as §1, §2

CDK4 gene expression = assay: RT-qPCR gene expression in TG/FA-treated hiPSC-Hep; assay type: cell-based, human; details: 24 h pre-treatment then TG/FA 18 h, relative to TG/FA
Description: as §1, §2

C/EBPα mRNA expression = assay: RT-qPCR gene expression in TG/FA-treated hiPSC-Hep; assay type: cell-based, human; details: 24 h pre-treatment then TG/FA 18 h
Description: as §1, §2

CDK1 = system: CDK1; parameters: method as in AstraZeneca data repository; details: median log of IC50/EC50/Ki/Kd annotations, highest value; ref AstraZeneca data repository; cited from earlier work

Row | Structure (SMILES) | pXC50 CDK2 (CDK2) | IC50 (hiPSC-Hep) [µM] | EC50 (hiPSC-Hep; Figure S5 dose-response, read-out: EC50, viable cell count (red line)) [µM] | effect on CDK2 gene expression (CDK2 gene expression) | effect on EP300 gene expression (EP300 gene expression) | CDK4 gene expression suppressed to (CDK4 gene expression; 5 µM) [%] | C/EBPα mRNA expression suppressed by (C/EBPα mRNA expression; 5 µM) [%] | pXC50 CDK1 (CDK1) | effect on CDK4 mRNA level (CDK4 gene expression) | effect on C/EBPα mRNA level (C/EBPα mRNA expression; relative to TG/FA)
1 | CNC(=O)c1nn(C)c2c1C(C)(C)Cc1cnc(Nc3ccc(N4CCN(C)CC4)cc3)nc1-2 [C16, Milciclib] | 7.60 | 16.6 | 16.6 | overall increase | not significantly affected | ~34 | 47 | 6.84 | – | –
2 | Cc1ncc(-c2nc(Nc3ccc(N4CCN(C(=O)CO)CC4)cc3)ncc2F)n1C(C)C [C3] | 8.24 | > 30 | – | no effect | no effect | – | – | 7.61 | no effect | no effect
